From US7592326B2, “Method for stimulating the immune, inflammatory or neuroprotective response” (priority 2004, dated 2009)

What was measured:
DCs = experiment: DC apoptosis (FITC-Annexin V/PI double staining); assay type: cell-based, human; conditions: 24 h
Procedure: FITC-Annexin V/Propidium Iodure (PI) double staining was used to detect apoptosis of DCs treated with c-di-GMP. Immature and mature DCs, untreated or treated with c-di-GMP for 24 h, were harvested and washed twice with ice cold PBS; specific binding of FITC-annexin V and staining with PI was performed with an apoptosis detection kit accordingly to the manufacturer's instructions. The cells were then analyzed by flow cytometry.

S. aureus Newbould 305 = experiment: Mouse model of S. aureus-induced mastitis, prophylactic pre-treatment; assay type: in vivo; conditions: for reduction of the mean bacterial CFU in tissues compared to untreated control: lactating CD-1 mice, 10 h infection
Procedure: The well-characterized mouse model of S. aureus-induced mastitis (see Brouillette et al., 2005 for review) was used to evaluate the capacity of c-di-GMP to act as a prophylactic agent. S. aureus is a Gram-positive bacterial pathogen. The protocol used here is similar to that described in a previous study (Brouillette et al., 2005), except that the c-di-GMP molecule was administered before infection of mammary glands, instead of after, in order to evaluate its prophylactic capacity. […] For inoculation, 100 cfu of S. aureus Newbould 305 (ATCC 29740) were injected in each gland and the colonization allowed for 10 h. Raw bacterial cfu counts obtained after plating serial logarithmic dilutions of mammary gland homogenates were transformed in base-10 logarithm values. The experiment was repeated and data combined for a total of 9 mice (18 glands) per group. Since values passed the normality test, bacterial counts were analyzed for statistical significance using the One-way analysis of variance test combined with the Tukey post test (GraphPad Instat, version 3.06). The institutional ethics committee on animal experimentation of the Faculté des sciences of Université de Sherbrooke approved these experiments and were carried out following the guidelines of the Canadian Council on Animal Care.

human DCs = experiment: Cytokine, chemokine and chemokine receptor expression in c-di-GMP-induced DC maturation (QPCR); assay type: cell-based
Procedure: Buffy coats were obtained from healthy human volunteers and fractionated over Histopaque-1077. The peripheral blood mononuclear cells (PBMC) layer was recovered and erythrocyte-depleted by incubation in red blood cell lysis buffer for 5 minutes at room temperature. PBMCs were cultured in complete medium (RPMI 1640, 1% L-glutamine, 1% penicillin/streptomycin, and 10% low endotoxin FCS) for 2 hours in T75 flasks (Corning). Following incubation, nonadherent cells were removed by three washes with 1× PBS (Invitrogen, Carlsbad, Calif.). The remaining adherent cells were then cultured in complete medium supplemented with GM-CSF and IL-4 (50 ng/mL each). Human and murine IL-4 and GM-CSF were purchased from Peprotech (Rocky Hill, N.J.). On day 2 and day 4, the DC cultures received an additional dose of GM-CSF and IL-4 (50 ng/mL each). On day 5, non-adherent DC were harvested by gentle pipetting, counted, and plated in fresh medium containing GM-CSF and IL-4 (50 ng/mL each). On Day 6, some DC were matured by addition of 100 ng/ml LPS or 10-400 μM c-di-GMP for 1-24 hours.
Surface expression of various markers was assessed using CellQuest analysis software on a FACScalibur (Becton-Dickinson) flow cytometer. Surface expression was determined using the following FITC- and PE-conjugated antibodies: CD86-FITC (Research Diagnostics), CCR7-PE (R&D Systems), CD80-FITC, CD83-FITC, HLA-DR-FITC (BD Pharmingen). The isotype control antibodies were used accordingly in all experiments and were purchased from Pharmingen. Human DC were incubated in 1% human AB serum/PBS and were incubated with rat anti-CD16/CD32 (BD Phamingen) to block non-specific binding. Total RNA was extracted using the RNeasy kit according to the manufacturer's protocol (Qiagen). Briefly, after DNase I (Invitrogen) treatment, 1 μg of total RNA from each sample was used as template for the reverse transcription reaction. 50 ul of cDNA was synthesized using Oligo(dT)15, random hexamers, and multiscribe reverse transcriptase (Applied Biosystems). All samples were reverse transcribed under the same conditions (25° C. for 10 minutes, 48° C. for 30 minutes) and from the same reverse transcription master mix in order to minimize differences in reverse transcription efficiency. All oligonucleotide primers for QPCR were designed using Primer Express software 1.0 (PE Biosystems) and synthesized by Invitrogen. The 25 ul QPCR reaction contains 2 ul of cDNA, 12.5 ul of 2× SYBR Green master mix (Stratagene), and […] of sense and anti-sense primer. The reaction conditions were as follows: 50° C. for 2 minutes, 95° C. for 10 minutes then 40 cycles of 95° C. for 15 seconds and 60° C. for 1 minute. Emitted fluorescence for each reaction was measured during the annealing/extension phase, and amplification plots were analyzed using the MX4000 software version 3.0 (Stratagene). Quantity values (i.e., copies) for gene expression were generated by comparison of the fluorescence generated by each sample with standard curves of known quantities. Next, the calculated number of copies was divided by the number of copies of the housekeeping gene GAPDH.

[1] = test system: K. pneumoniae strain 43816, serotype 2; experiment: Survival in murine Klebsiella pneumonia; assay type: in vivo
[2] = test system: influenza virus A/Puerto Rico/8/34 (H1N1, PR8); conditions: in vivo
[3] = pH 10
C. neoformans strain 52 = experiment: Murine model of C. neoformans infection (proposed procedure)
[4] = 200 nmol intramammary 12 h and 6 h prior to challenge, P<0.001

Nc1nc(=O)c2ncn([C@@H]3OC4COP(=O)(O)O[C@H]5[C@@H](O)[C@H](n6cnc7c(=O)nc(N)[nH]c76)O[C@@H]5COP(=O)(O)OC4C3O)c2[nH]1 (some centres unmarked) [c-di-GMP, Bis(3′→5′)-cyclic diguanylic acid]
Early apoptosis (% of annexin V^+/PI^− cells) (DCs; cdiGMP 5 μM): 23%
Late apoptosis (% of annexin V^+/PI^+ cells) (DCs; cdiGMP 5 μM): 36%
Early apoptosis (% of annexin V^+/PI^− cells) (DCs; cdiGMP 50 μM): 31%
Late apoptosis (% of annexin V^+/PI^+ cells) (DCs; cdiGMP 50 μM): 40%
Early apoptosis (% of annexin V^+/PI^− cells) (DCs; cdiGMP 100 μM): 18%
Late apoptosis (% of annexin V^+/PI^+ cells) (DCs; cdiGMP 100 μM): 42%
effect on DC apoptosis (DCs; immature and mature DCs): did not appear to have any effect
reduction of the mean bacterial CFU in tissues compared to untreated control (S. aureus Newbould 305; 50 nmol intramammary 12 h and 6 h prior to challenge, P<0.05): 1.5 log
reduction in CFUs in tissues (S. aureus Newbould 305; [4]): 10,000 fold
reduction of the mean bacterial CFU in tissues compared to untreated control (S. aureus Newbould 305; [4]): 3.8 log
mRNA expression of chemokines IL-8/CXCL8, MIG/CXCL9, IP-10/CXCL10, I-TAC/CXCL11, MCP-1/CCL2, MIP-1a/CCL3, MIP-1b/CCL4, RANTES/CCL5 (human DCs; 200 uM, 1-24 hours): increased
mRNA expression of IFN-a, IL-1b, TNF, IFN-g and IL-12 p40 (human DCs; 200 uM, FIG. 11A): stimulated
IL-8 and IP-10 protein production (ELISA of supernatants) (human DCs; 24 hours, data not shown): consistent with the mRNA results
expression of CXCR4 and CCR7 (human DCs; FIG. 11C): upregulated
expression of chemokine receptors CCR1 and CCR5 (human DCs; FIG. 11C): downregulated
induction of Th2 cytokines (IL-4, IL-5, IL-10, IL-13) (human DCs; human DCs): No evidence for the induction
time of TNF-a peak following treatment (human DCs; returns to basal level after 24 hours): 3 h
survival following i.t. Klebsiella challenge ([1]; 200 nmoles i.n. 48 and 24 hrs prior, Balb/c mice, vehicle approx. 10%, p<0.05, FIG. 15): significantly increased
survival following i.t. Klebsiella challenge ([1]; 200 nmoles s.q. 48 and 24 hrs prior, Balb/c mice, p<0.05, FIG. 15): significantly increased
survival following i.t. Klebsiella challenge ([1]; given concomitantly and 6 hrs post K. pneumoniae, data not shown): no increase in survival
outcome compared to control mice [2]: increased survival, less weight loss
stability at physiological conditions [3]: stable
pathogen burden compared with controls (C. neoformans strain 52; C57BL/6 mice): significantly reduced
pulmonary eosinophilia (C. neoformans strain 52; C57BL/6 mice): significantly reduced
IFN production and total numbers of CD4^+/IFN-γ^+ cells (C. neoformans strain 52; lung, C57BL/6 mice): increased
survival (C. neoformans strain 52; oral, intranasal, i.p., i.v., s.q., or i.m. administration): increase survival
